Measurements as given in patent US20250353858A1, “CONDENSED HETEROCYCLIC COMPOUNDS AS INHIBITOR OF DIACYLGLYCEROL KINASES” (BEONE MEDICINES I GMBH, priority 2023, published 2025).

Legend:
DGKζ = DGKζ (Homo sapiens (Human), UniProt Q13574); assay: Biochemical DGK IC50 assay (ADP-Glo, lipid micelle substrate), DGKζ; conditions: full length DGKζ 0.5 nM, ATP 140 μM, DAG 80 μM
Method: (§1) Enzymatic reactions of DGKζ, DGKα and DGKδ were performed using ADP-Glo assay with lipid micelle substrate. […] Full length DGKα (D21-10BG, SignalChem) and full length DGKδ (D23-10G, SignalChem) were purchased. Lipid micelle was prepared by dissolving DAG (Sigma, 317505-10MG) and PS (Sigma, P7769-100MG) with chloroform which was furtherly removed by rotary evaporation. The resulted product was resuspended in buffer containing 25 mM HEPES pH 7.0, 0.5 mM EDTA and 160 mM Octyl β-D glucopyranoside by vigorous mixing and ultrasonic (IID, Scientz).
(§2) The inhibition activities testing for the compound disclosed herein were carried out at room temperature in assay buffer containing 50 mM HEPES, 10 mM MgCl2, 0.01% BSA, 0.1 mM Na3VO4, 0.005% Tween-20 and 0.01 mM CaCl2. Compounds in DMSO were dispensed into wells of a black 384 well plate (Corning 4514) using D300e digital dispenser (Tecan). […] 3 μL 2× enzyme solution was added to wells. […] After 1 hour reaction, 5 μL ADP-Glo reagent (Promga V9101) was added and incubated for 40 minutes. 10 μL Kinase Detection reagent was added and incubated for 30 minutes. Luminescence was measured on a microplate reader (PHERAstar FSX, BMG labtech). The IC50s are calculated based on inhibition of enzyme activity in the presence of increasing concentrations of compounds.
Human His-TEV-DGK-zeta-pFastBac1 and human baculovirus samples was generated using the Bac-to-Bac baculovirus expression system (Invitrogen) according to the manufacturer's protocol. The DNA used for expression of DGK-zeta, have SEQ ID Nos: 1. Baculovirus amplification was achieved using infected SF9 cells at 1:2000 virus/cells ratios, and grown for 96 hours at 27° C. post-transfected.
Full length human DGKζ produced as described above, was purified from Sf9 baculovirus-infected insect cell paste. The cells were lysed using sonication method, and the lysates were clarified by centrifugation.

DGKα = DGKα (Homo sapiens (Human), UniProt P23743); assay: Biochemical DGK IC50 assay (ADP-Glo, lipid micelle substrate), DGKα; conditions: full length DGKα […], ATP 140 μM, DAG 80 μM; further: full length DGKα 7.5 nM
Method: as §1, §2

Sequence of DGKα (P23743 whole entry): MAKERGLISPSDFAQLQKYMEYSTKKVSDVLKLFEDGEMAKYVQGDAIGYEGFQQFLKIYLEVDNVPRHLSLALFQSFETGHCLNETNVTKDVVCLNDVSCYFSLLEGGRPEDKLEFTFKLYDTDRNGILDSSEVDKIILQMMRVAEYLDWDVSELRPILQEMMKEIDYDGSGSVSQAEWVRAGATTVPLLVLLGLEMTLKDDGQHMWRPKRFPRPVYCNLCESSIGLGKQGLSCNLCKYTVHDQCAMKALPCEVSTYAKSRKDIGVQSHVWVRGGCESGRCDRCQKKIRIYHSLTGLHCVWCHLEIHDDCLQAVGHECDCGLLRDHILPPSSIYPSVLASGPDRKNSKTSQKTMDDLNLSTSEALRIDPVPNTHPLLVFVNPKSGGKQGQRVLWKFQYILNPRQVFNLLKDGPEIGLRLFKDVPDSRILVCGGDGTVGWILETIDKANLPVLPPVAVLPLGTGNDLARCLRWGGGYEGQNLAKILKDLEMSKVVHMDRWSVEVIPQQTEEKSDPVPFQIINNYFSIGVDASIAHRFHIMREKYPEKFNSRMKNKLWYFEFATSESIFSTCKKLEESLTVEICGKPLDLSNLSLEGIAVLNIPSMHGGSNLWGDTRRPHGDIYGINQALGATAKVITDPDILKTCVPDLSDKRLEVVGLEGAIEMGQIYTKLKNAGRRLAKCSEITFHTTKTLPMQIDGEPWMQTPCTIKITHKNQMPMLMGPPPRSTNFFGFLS
Sequence of DGKζ (Q13574 other isoform, or with tags, fused parts or gaps): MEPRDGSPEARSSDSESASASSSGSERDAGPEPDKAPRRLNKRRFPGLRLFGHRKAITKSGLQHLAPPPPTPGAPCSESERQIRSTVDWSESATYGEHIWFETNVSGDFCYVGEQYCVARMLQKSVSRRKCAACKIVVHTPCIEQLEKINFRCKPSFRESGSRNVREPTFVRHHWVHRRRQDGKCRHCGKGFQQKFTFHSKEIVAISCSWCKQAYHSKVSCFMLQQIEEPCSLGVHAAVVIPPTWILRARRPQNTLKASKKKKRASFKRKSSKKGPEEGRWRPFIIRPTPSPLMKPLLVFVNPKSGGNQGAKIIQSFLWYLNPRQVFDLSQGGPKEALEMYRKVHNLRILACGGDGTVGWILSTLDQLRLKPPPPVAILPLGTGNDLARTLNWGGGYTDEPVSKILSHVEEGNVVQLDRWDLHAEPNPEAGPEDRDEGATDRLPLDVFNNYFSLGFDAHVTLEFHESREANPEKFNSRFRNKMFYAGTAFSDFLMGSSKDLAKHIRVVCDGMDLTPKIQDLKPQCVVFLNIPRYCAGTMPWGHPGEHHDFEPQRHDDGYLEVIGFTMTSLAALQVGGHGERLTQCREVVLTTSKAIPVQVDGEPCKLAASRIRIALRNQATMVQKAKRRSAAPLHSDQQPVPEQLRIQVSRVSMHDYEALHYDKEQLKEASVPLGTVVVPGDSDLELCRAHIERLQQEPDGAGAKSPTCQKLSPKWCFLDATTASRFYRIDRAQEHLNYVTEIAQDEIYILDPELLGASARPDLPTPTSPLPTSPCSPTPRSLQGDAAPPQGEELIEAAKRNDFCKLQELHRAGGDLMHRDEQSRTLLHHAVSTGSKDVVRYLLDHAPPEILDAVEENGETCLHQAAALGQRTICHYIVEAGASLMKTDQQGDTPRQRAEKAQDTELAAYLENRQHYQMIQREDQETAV

Structure (SMILES) | IC50 (DGKζ) [nM] | IC50 (DGKα) [nM]
CC[C@H]1CN(C(C)c2ccn3nc(Cl)c(F)c3n2)[C@H](CC)CN1c1nc(=O)n(C)c2cc(CC#N)nn12 (stereo partly drawn) [Compound A59, 2-(4-((2S,5R)-4-(1-(2-chloro-3-fluoropyrazolo[1,5-a]pyrimidin-5-yl)ethyl)-2,5-diethylpiperazin-1-yl)-1-methyl-2-oxo-1,2-dihydropyrazolo[1,5-a][1,3,5]triazin-7-yl)acetonitrile] | 38 | 111
CC[C@H]1CN(C(C)c2ccn3nc(F)c(F)c3n2)[C@H](CC)CN1c1nc(=O)n(C)c2cc(CC#N)nn12 (stereo partly drawn) [Compound A60, 2-(4-((2S,5R)-4-(1-(2,3-difluoropyrazolo[1,5-a]pyrimidin-5-yl)ethyl)-2,5-diethylpiperazin-1-yl)-1-methyl-2-oxo-1,2-dihydropyrazolo[1,5-a][1,3,5]triazin-7-yl)acetonitrile] | 40 | 63
